Test results taken from ChEMBL document CHEMBL1944604, “Aminopurine based JNK inhibitors for the prevention of ischemia reperfusion injury” (Bioorg Med Chem Lett, 2012).
Converted amounts (≈) assume the structure as drawn.

Experiments:
[1] = target: Mitogen-activated protein kinase 14 (Homo sapiens, UniProt Q16539); experiment: Inhibition of p38alpha using MBP and [gamma33P]ATP as substrate after 60 mins by scintillation counting
[2] = target: Mitogen-activated protein kinase 9 (Homo sapiens, UniProt P45984); experiment: Inhibition of full length Hexa-His-tagged JNK2 using GST-tagged cJun and [gamma33P]ATP as substrate after 60 mins by scintillation counting
Mitogen-activated protein kinase 9, sequence (P45984 whole entry): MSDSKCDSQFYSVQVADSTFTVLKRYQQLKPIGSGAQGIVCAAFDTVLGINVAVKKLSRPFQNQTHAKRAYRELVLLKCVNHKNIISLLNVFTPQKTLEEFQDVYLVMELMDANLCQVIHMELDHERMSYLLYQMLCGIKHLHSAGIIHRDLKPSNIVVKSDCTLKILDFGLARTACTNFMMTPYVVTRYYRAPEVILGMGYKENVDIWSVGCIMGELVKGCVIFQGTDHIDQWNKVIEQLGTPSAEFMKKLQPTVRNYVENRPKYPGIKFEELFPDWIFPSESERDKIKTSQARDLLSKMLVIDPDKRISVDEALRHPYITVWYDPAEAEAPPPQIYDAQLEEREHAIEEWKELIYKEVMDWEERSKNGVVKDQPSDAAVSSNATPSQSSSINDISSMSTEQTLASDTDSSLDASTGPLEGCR

[3] = target: Mitogen-activated protein kinase 10 (Homo sapiens, UniProt P53779); experiment: Inhibition of full length Hexa-His-tagged JNK3 using GST-tagged cJun and [gamma33P]ATP as substrate after 60 mins by scintillation counting
Mitogen-activated protein kinase 10, sequence (P53779 whole entry): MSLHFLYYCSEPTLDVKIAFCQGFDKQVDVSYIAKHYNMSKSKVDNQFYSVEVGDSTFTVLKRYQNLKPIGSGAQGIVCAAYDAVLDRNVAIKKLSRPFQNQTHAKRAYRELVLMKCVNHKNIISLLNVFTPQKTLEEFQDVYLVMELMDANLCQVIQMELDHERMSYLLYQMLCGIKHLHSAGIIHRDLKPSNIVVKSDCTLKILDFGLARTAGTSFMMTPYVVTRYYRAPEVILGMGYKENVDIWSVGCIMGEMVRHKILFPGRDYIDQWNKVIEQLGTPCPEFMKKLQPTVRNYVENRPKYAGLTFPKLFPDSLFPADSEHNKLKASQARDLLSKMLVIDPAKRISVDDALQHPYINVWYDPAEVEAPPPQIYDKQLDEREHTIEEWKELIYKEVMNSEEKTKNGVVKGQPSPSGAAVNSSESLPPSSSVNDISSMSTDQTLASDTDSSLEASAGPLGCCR

[4] = Metabolic stability in rat liver S9 fraction assessed as compound remaining after 60 mins; type: ADME, subcellular; conditions: read-out: Stability
[5] = target: Mitogen-activated protein kinase 8 (Homo sapiens, UniProt P45983); experiment: Inhibition of full length Hexa-His-tagged JNK1 using GST-tagged cJun and [gamma33P]ATP as substrate after 60 mins by scintillation counting
Mitogen-activated protein kinase 8, sequence (P45983 whole entry): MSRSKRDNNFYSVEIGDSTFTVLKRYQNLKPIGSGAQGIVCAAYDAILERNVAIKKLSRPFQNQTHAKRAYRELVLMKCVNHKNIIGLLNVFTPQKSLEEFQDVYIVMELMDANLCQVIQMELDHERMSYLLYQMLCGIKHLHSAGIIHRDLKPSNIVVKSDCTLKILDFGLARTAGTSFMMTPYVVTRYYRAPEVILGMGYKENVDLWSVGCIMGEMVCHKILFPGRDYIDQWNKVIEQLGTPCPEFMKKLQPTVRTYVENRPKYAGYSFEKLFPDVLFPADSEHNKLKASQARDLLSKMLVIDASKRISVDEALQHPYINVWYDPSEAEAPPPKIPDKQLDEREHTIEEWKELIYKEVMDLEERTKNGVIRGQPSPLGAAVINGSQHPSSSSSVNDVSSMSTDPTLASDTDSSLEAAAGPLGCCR

[6] = Metabolic stability in human liver S9 fraction assessed as compound remaining after 60 mins; type: ADME, subcellular; conditions: read-out: Stability
[7] = Aqueous solubility of the compound at pH 5; type: physicochemical
[8] = target: c-Jun N-terminal kinase, JNK (Homo sapiens, UniProt P45983+P53779+P45984); experiment: Inhibition of JNK-mediated cJun phosphorylation in anisomysin-stimulated human Jurkat T cells pretreated for 30 mins before anisomysin stimulation measured after 10 mins by DELFIA assay; type: cell-based
[9] = Volume of distribution at steady state in rat at 2 to 10 mg/kg, iv; type: ADME, organism-based; design: dose 2-10 mg/kg, route intravenous; conditions: in vivo, read-out: Vdss
[10] = Clearance in rat at 2 to 10 mg/kg, iv; type: ADME, organism-based; design: dose 2-10 mg/kg, route intravenous; conditions: in vivo
[11] = Thermodynamic solubility of the compound at pH 5; type: physicochemical; conditions: buffer, read-out: Therm_solubility
[12] = Half life in human microsomes; type: ADME, Microsome
[13] = Aqueous solubility of the compound at pH 7.4; type: physicochemical
[14] = Half life in rat microsomes; type: ADME, Microsome

Mitogen-activated protein kinase 14, sequence (Q16539 whole entry): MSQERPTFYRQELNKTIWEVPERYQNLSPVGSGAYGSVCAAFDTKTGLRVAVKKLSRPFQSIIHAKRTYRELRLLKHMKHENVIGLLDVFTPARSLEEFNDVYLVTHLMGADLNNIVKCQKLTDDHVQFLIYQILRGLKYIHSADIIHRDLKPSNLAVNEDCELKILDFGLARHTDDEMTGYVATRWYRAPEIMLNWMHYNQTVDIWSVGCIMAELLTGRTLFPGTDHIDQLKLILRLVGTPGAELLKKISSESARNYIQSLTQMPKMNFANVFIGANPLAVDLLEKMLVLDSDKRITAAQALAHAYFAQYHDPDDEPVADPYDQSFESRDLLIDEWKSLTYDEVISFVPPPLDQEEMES

SMILES	IC50 [1]	IC50 [2]	IC50 [3]	remaining at 1 h [4]	IC50 [5]	remaining at 1 h [6]	IC50 [8]	Vd [9]	clearance [10]	solubility thermodynamic [11]	half-life [12]	solubility [13]	half-life [14]	solubility [7]
COc1ccc(Nc2ncc3nc(Nc4ccccc4)n(C4CCCC4)c3n2)cc1	> 30 µM	0.8 µM	> 1 µM	> 70%	> 10 µM	> 70%	–	–	–	–	–	–	–	–
COc1ccc(Nc2ncc3nc(Nc4ccccc4Cl)n(C4CCCC4)c3n2)cc1	> 30 µM	> 10 µM	> 10 µM	> 70%	> 10 µM	> 70%	–	–	–	–	–	–	–	–
Cl.N[C@H]1CC[C@H](Nc2ncc3nc(Nc4ccc(F)cc4F)n(C4CCCC4)c3n2)CC1	–	–	–	–	–	–	–	–	–	–	–	–	–	5.7 µg/mL
COc1ccc(Nc2ncc3nc(Nc4c(F)cccc4F)n(C4CCCC4)c3n2)cc1	3.5 µM	0.046 µM	0.13 µM	> 70%	1.1 µM	> 70%	–	–	–	–	–	–	–	–
COc1ccc(Nc2ncc3nc(Nc4ccccc4F)n(C4CCCCC4)c3n2)cc1	> 3 µM	0.14 µM	0.36 µM	–	2.9 µM	–	–	–	–	–	–	–	–	–
CNc1ncc2nc(Nc3ccccc3F)n(C3CCCC3)c2n1	> 30 µM	0.36 µM	0.68 µM	–	6.3 µM	–	–	–	–	–	–	–	–	–
COc1ccc(Nc2ncc3nc(Nc4ccccc4F)n(C4CCCC4)c3n2)cc1	> 3 µM	0.12 µM	–	35%	1.1 µM	86%	–	–	–	–	1.03 h	447 µg/mL (≈ 1070 µM)	1.68 h	–
COc1ccc(Nc2ncc3nc(Nc4ccccc4F)n(-c4ccccc4)c3n2)cc1	> 3 µM	1 µM	> 0.3 µM	–	> 10 µM	–	–	–	–	–	–	–	–	–
COc1ccc(Nc2ncc3nc(Nc4ccccc4F)n(C4CCOCC4)c3n2)cc1	2.8 µM	0.052 µM	0.063 µM	–	0.49 µM	–	–	–	–	–	–	–	–	–
CCn1c(Nc2ccccc2F)nc2cnc(Nc3ccc(OC)cc3)nc21	9.3 µM	0.43 µM	0.36 µM	–	3.6 µM	–	–	–	–	–	–	–	–	–

Now from value to compound, other results behind:

IC50 [1]	IC50 [2]	IC50 [3]	remaining at 1 h [4]	IC50 [5]	remaining at 1 h [6]	IC50 [8]	Vd [9]	clearance [10]	solubility thermodynamic [11]	half-life [12]	solubility [13]	half-life [14]	SMILES	solubility [7]
1.5 µM	0.046 µM	0.05 µM	–	0.58 µM	–	–	–	–	–	–	–	–	Fc1ccccc1Nc1nc2cnc(NC3CCCCC3)nc2n1C1CCCC1	–
1.3 µM	0.13 µM	0.14 µM	> 70%	2.5 µM	> 70%	–	–	–	–	–	–	–	COc1ccc(Nc2ncc3nc(Nc4ccc(F)cc4F)n(C4CCCC4)c3n2)cc1	–
0.49 µM	0.009 µM	0.013 µM	–	0.091 µM	–	0.21 µM	66 L/kg	118 mL/min/kg	852 µg/mL (≈ 1990 µM)	–	–	–	N[C@H]1CC[C@H](Nc2ncc3nc(Nc4c(F)cccc4F)n(C4CCCC4)c3n2)CC1	–
0.21 µM	0.026 µM	0.031 µM	–	0.23 µM	–	0.3 µM	–	–	869 µg/mL (≈ 2120 µM)	–	–	–	N[C@H]1CC[C@H](Nc2ncc3nc(Nc4ccccc4F)n(C4CCCC4)c3n2)CC1	–
2.1 µM	0.083 µM	0.096 µM	–	0.84 µM	–	–	–	–	–	–	–	–	COc1ccc(Nc2ncc3nc(Nc4ccccc4F)n(C(C)C)c3n2)cc1	–
0.24 µM	0.022 µM	0.024 µM	–	0.18 µM	–	–	–	–	–	–	–	–	COc1ccc(Nc2ncc3nc(Nc4ccccc4F)n([C@H]4CC[C@@H](C(N)=O)CC4)c3n2)cc1	–
2.6 µM	0.14 µM	0.26 µM	–	1.8 µM	–	–	–	–	–	–	–	–	CCNc1ncc2nc(Nc3ccccc3F)n(C3CCCC3)c2n1	–
0.21 µM	0.24 µM	0.24 µM	–	2.6 µM	–	–	–	–	–	–	–	–	COc1ccc(Nc2ncc3nc(Nc4ccccc4F)n([C@H]4CC[C@H](N)CC4)c3n2)cc1	–
1.2 µM	0.066 µM	0.11 µM	–	0.8 µM	–	–	–	–	–	–	–	–	CC(C)Nc1ncc2nc(Nc3ccccc3F)n(C3CCCC3)c2n1	–
0.49 µM	0.011 µM	0.016 µM	–	0.15 µM	–	0.24 µM	90 L/kg	88 mL/min/kg	> 1000 µg/mL	–	–	–	N[C@H]1CC[C@H](Nc2ncc3nc(Nc4c(F)cc(F)cc4F)n(C4CCCC4)c3n2)CC1	–
0.51 µM	0.01 µM	0.012 µM	–	0.075 µM	–	–	–	–	–	–	< 2.5 µg/mL	–	O[C@H]1CC[C@H](Nc2ncc3nc(Nc4ccccc4F)n(C4CCCC4)c3n2)CC1	–
1.6 µM	0.014 µM	0.017 µM	–	0.16 µM	–	–	–	–	–	–	–	–	COc1ccc(Nc2ncc3nc(Nc4ccccc4F)n([C@H]4CC[C@@H](O)CC4)c3n2)cc1	–
